Experimental data as given in US9809562B2, “NAT10 modulators for treating or preventing laminopathies, aging and cancer” (CAMBRIDGE ENTERPRISE LIMITED, priority 2014, dated 2017).

Experiments:
[1] = test system: primary MRC5 fibroblasts aged in culture; assay: Misshapen nuclei in aged MRC5 cells; format: cell-based, human; conditions: population doubling 44
Text: FIG. 10: Remodelin rescues nuclear shape of aged MRC5 cells but not WS cells in a dose dependent manner. A) Misshapen nuclei observed by DAPI staining in MRC5 aged cells in culture, at population doubling 44 (PD44) were rescued by Remodelin. B) Quantification of misshapen nuclei after increasing concentrations of Remodelin (mean of three independent experiments±s.e.m.). C) DAPI staining of non-laminopathic Werner Syndrome cells (WS) showing no nuclear shape improvement upon Remodelin treatment. D) Cell Profiler quantification of misshapen nuclei (mean of three independent experiments±s.d. n>273). Scale bars: 50 μm.
U2OS and SaOS-2 osteosarcoma cells, HeLa cervical cancer cells, A431 melanoma cells, NCI-SNU5 gastric cancer cells, MRC-5 lung fibroblast cells and Werner syndrome patient-derived SV40 fibroblast cells were grown in Dulbecco's modified Eagle medium (DMEM, Sigma-Aldrich) supplemented with 10% fetal bovine serum (BioSera), 2 mM L-glutamine, 100 U per ml penicillin, 100 μg ml^−1 streptomycin. Normal skin primary fibroblasts GM03440 and Hutchinson Gilford Progeria Syndrome (HGPS) skin primary fibroblasts AG11498 and AG06297 were purchased from Coriell Cell Repositories and used between passage number 9-12 and 20-23 respectively. Cells were grown in DMEM supplemented as above. […] Cells were analysed 48 to 72 hours after transfection.

[2] = test system: HGPS primary fibroblasts (AG11498 and AG06267); assay: Misshapen nuclei in HGPS cells; format: cell-based, human; conditions: HGPS patient fibroblasts
Experimental: U2OS and SaOS-2 osteosarcoma cells, HeLa cervical cancer cells, A431 melanoma cells, NCI-SNU5 gastric cancer cells, MRC-5 lung fibroblast cells and Werner syndrome patient-derived SV40 fibroblast cells were grown in Dulbecco's modified Eagle medium (DMEM, Sigma-Aldrich) supplemented with 10% fetal bovine serum (BioSera), 2 mM L-glutamine, 100 U per ml penicillin, 100 μg ml^−1 streptomycin. Normal skin primary fibroblasts GM03440 and Hutchinson Gilford Progeria Syndrome (HGPS) skin primary fibroblasts AG11498 and AG06297 were purchased from Coriell Cell Repositories and used between passage number 9-12 and 20-23 respectively. Cells were grown in DMEM supplemented as above. RPE-1 retinal pigment epithelial cells were grown in DMEM and Ham F12 mix medium supplemented as above and buffered with sodium bicarbonate. HMV-II melanoma cell line, 22RV1 prostate carcinoma cells, NCI-H82 and NCI-H69 lung carcinoma cells, and NCI-N87 gastric cancer cell lines were grown in RPMI-1640 medium (Sigma-Aldrich) supplemented as above. Stably transfected U2OS cells were maintained in standard medium containing 1 mg ml^−1 G418 (Invitrogen). The siRNA duplexes were obtained from Life Sciences: Lamin A/C stealth RNAi: […] (SEQ ID NO: 1) and […] (SEQ ID NO: 2), NAT10 stealth RNAi: […] (SEQ ID NO: 3), and as control siRNA, stealth RNAi negative control duplexes were used. Plasmid DNA and siRNA transfections were carried out using Lipofectamine 2000 and Lipofectamine RNAiMax (Life Sciences) respectively, following the manufacturer's instructions. Cells were analysed 48 to 72 hours after transfection.
The following KAT and KDAC inhibitors were used in the nuclear shape rescue screen, incubating cells with the molecules for 16 hours: trichostatin A (1 μM), sodium butyrate (5 mM), tubacin (10 μM), SAHA (5 μM), curcumin (10 μM), garcinol (50 μM), anacardic acid (1 μM), MB-3 (5 μM), 4-(4-chlorophenyl)-2-(2-cyclopentylidenehydrazinyl)thiazole (Compound 2) (50 μM), 4-(4-chlorophenyl)-2-(2-cyclopentylidene-1-(prop-2-yn-1-yl)hydrazinyl)thiazole (Compound 3) (50 μM) and cyclopentylidene-[4-(4-cyanophenyl)thiazol-2-yl)hydrazine (Compound 1) (Remodelin) (10 to 50 μM). For HGPS cellular fitness assays, Remodelin was incubated at 1 μM for 1 to 10 days, renewing the medium every 3 days. For long-term senescence assay, cells were kept and passaged in medium containing 1 μM Remodelin or DMSO only for 12 population doublings. Senescence was assessed after 8 days of Remodelin treatment when cells were at Population Doubling 12, and then after several weeks of Remodelin treatment, when cells reached Population Doubling 24 using the Senescence β-Galactosidase Staining Kit #9860 from Cell Signaling. Nocodazole, colchicine and latrunculin A (Sigma-Aldrich) were used at 200 ng/ml, 1 μg/ml and 1 μM respectively. […]

HGPS cells = assay: Proliferation assay of HGPS cells (IncuCyte); format: cell-based, human; conditions: Remodelin 1 μM
Experimental: HGPS cells were plated at the same number in 24 well dishes. Next day, Remodelin (1 μM) or small molecule Compound 2 (1 to 10 μM), were added to the wells and plates were transferred into an IncuCyte microscope (Essen BioScience). Phase contrast pictures were acquired every 2 hours over several days. Percentage of cell confluence was calculated by the Cell Player integrated software (Essen BioScience) and analysed with GraphPad Prism® software.

[3] = test system: cells (sub-cellular distribution); assay: Fluorescent labelling of clickable molecules (sub-cellular distribution); format: cell-based; conditions: 2 hours pre-incubation, Alexa fluor 488 Azide click
Experimental: Cells were pre-incubated with clickable molecules Compound 3 or Reference Compound A (1-Chloro-4-ethynilbenzene, purchased from Sigma-Aldrich) for 2 hours before being fixed and permeabilised as described above. Click reaction was prepared using Invitrogen Click-iT reagents with Alexa fluor 488 Azide and incubated with fixed cells for 1 hour in the dark. In case of co-labelling with another protein, the click reaction was performed before the antibody incubations.

Row | Structure (SMILES) | misshapen nuclei of aged MRC5 cells [1] | misshapen nuclei / nuclear shape of HGPS cells [2] | cell proliferation of HGPS cells (HGPS cells) | sub-cellular distribution of fluorescently labelled molecule [3]
1 | N#Cc1ccc(-c2csc(NN=C3CCCC3)n2)cc1 [Compound 1, 4-(4-Cyanophenyl)-2-(2-cyclopentylidenehydrazinyl)thiazole] | also had this effect on primary MRC5 fibroblasts aged in culture | significantly reduced the number of HGPS cells with misshapen nuclei | enhanced cell proliferation capacity | –
2 | C#CCN(N=C1CCCC1)c1nc(-c2ccc(Cl)cc2)cs1 [Compound 3, 4-(4-Chlorophenyl)-2-(2-cyclopentylidene-1-(prop-2-yn-1-yl)hydrazinyl)thiazole] | – | – | – | predominant accumulation of Compound 3 in nucleoli
